{"source": "paper PMC6154319", "about": "“Intestinal Transport Characteristics and Metabolism of C-Glucosyl Dihydrochalcone, Aspalathin” (Molecules : A Journal of Synthetic Chemistry and Natural …, 2017)", "key": {"[1]": {"assay": "Stability of aspalathin (in SB1) in water and HEPES buffer", "type": "physicochemical", "conditions": "2 h incubation, aspalathin in extract SB1"}, "[2]": {"assay": "Acute mouse study, metabolite identification in blood and urine by LC-MS/MS", "type": "in vivo", "conditions": "oral 50 mg/kg", "procedure": "An acute mouse study was performed under ethical approval from the Ethics Committee for Research on Animals (ECRA) of the South African Medical Research Council (Ref:07/13). Three 8-week old male C57.BKS mice, obtained from the Primate Unit of the South African Medical Research Council (Tygerberg, South Africa), were housed individually in polycarbonate cages with wired lids and kept in a controlled environment of 23–24 °C, 50% humidity, and a 12 h light/dark cycle. Prior to the study, urine was collected from the fasting mice overnight in a metabolic cage. Baseline fasted blood was collected via tail snip into a heparin tube, snap frozen in liquid nitrogen, and stored at −80 °C. Each mouse received a single dose of synthetic aspalathin (50 mg/kg body weight) dissolved in phosphate-buffered saline (PBS) (5 mg/mL) via orogastric gavage. Blood samples were collected and handled as described for fasting at time 0 (pre-gavage), and 1, 2, 4, 6, and 8 h post-gavage. All the samples were collected into the same heparin tube and kept on ice during the experiment. Urine was collected over the 8-h post-gavage monitoring period and the samples were stored at −80 °C until analysis.\nThe frozen whole blood samples, as well as the samples incubated with microsomes and controls, were thawed, extracted by protein precipitation using 0.1% formic acid (FA) in acetonitrile, centrifuged and filtered through 0.22 µm polyvinylidene difluoride (PVDF) filters (Merck Millipore, Frankfurter Straße, Darmstadt, Germany). Frozen whole urine samples were thawed and diluted 5 times in 0.1% aqueous FA. Samples were analysed by LC-MS/MS on an Agilent 1200 Rapid Resolution HPLC system (600 bar, Agilent Technologies) coupled to a 4000 QTRAP® (AB Sciex, Framingham, MA, USA) equipped with a Turbo V™ […]. Filtered samples (10 μL), stored on a sample tray maintained at 8 °C, were injected on a Gemini C6-Phenyl column (150 × 2.0 mm, 3 µm particles) (Phenomenex, Santa Clara, CA, USA) at 40 °C. […]"}, "GLUT2": {"biological_target": "T1, GLUT2 (Homo sapiens, UniProt P11168)", "T1 sequence (P11168 1-524)": "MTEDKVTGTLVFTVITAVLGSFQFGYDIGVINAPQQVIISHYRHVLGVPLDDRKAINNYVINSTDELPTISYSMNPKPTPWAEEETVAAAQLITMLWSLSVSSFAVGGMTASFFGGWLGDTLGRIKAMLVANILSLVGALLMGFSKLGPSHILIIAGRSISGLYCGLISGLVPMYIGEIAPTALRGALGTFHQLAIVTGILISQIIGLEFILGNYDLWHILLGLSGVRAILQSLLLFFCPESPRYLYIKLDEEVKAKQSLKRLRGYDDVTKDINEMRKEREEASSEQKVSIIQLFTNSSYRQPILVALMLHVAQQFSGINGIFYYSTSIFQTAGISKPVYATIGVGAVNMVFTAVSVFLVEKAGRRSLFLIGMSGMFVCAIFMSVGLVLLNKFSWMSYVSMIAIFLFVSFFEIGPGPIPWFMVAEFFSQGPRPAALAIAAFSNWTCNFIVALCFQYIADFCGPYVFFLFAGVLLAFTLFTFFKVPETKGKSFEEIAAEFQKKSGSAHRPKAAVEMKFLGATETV", "conditions": "aspalathin 100 µM; 100 µM phloretin (GLUT2)"}}, "note": "Marks after values point to notes of the source that are not given here."}
{"smiles": "O=C(CCc1ccc(O)c(O)c1)c1c(O)cc(O)c([C@@H]2O[C@H](CO)[C@@H](O)[C@H](O)[C@H]2O)c1O", "note": "[Aspalathin]", "values": [{"measurement": "percentage aspalathin degradation", "setting": "[1]; HEPES buffer pH 6", "value": 10, "unit": "%"}, {"measurement": "percentage aspalathin degradation", "setting": "[1]; HEPES buffer pH 7.4", "value": 11, "unit": "%"}, {"measurement": "percentage aspalathin degradation", "setting": "[1]; deionised water", "value": 1, "unit": "%"}, {"measurement": "detection of aspalathin and metabolites in blood", "setting": "[2]; blood 1-8 h post-gavage", "value": "No aspalathin, nor any of its metabolites, could be detected"}, {"measurement": "number of aspalathin metabolites detected in the urine", "setting": "[2]; urine over 8 h", "value": 13}, {"measurement": "Papp a-b + Inhibitor (phloretin)", "setting": "GLUT2", "value": "1.67 ± 0.43 ^c ×10^−6 cm/s"}, {"measurement": "Papp b-a + Inhibitor (phloretin)", "setting": "GLUT2", "value": "1.95 ± 1.1 ^c ×10^−6 cm/s"}]}
